Measured values: US20250051243A1, “Nano Bio-Carrier with Plant Additives Combined with Chemical Fertilizers” (Sabic Agri-Nutrients Company, priority 2021, published 2025)

System: Maize
Experiment: Maize trials: soil and foliar application of nano chitosan fertilizer product on maize crops (greenhouse pots)
Format: in vivo
Description: Maize trials. Assays were also performed to evaluate soil and foliar application of nano chitosan fertilizer product on maize crops. These trials were also performed to investigate the effect of different concentrations of bulk and nano chitosan on the growth and productivity of maize. The maize trials included a further formulation for nano-chitosan urea, namely a urea-chitosan nanocomposite. The urea-chitosan nanocomposite was prepared by evaporating or freeze-drying the nano-chitosan fertilizer aqueous solution. The current urea-chitosan nanocomposite was prepared by evaporating an aqueous solution of nanochitosan urea at 50° C. for two days in an oven. Nanocomposite morphology of the urea-chitosan nanocomposite was confirmed based on SEM and compositional analysis shown in FIGS. 6A-6E and TEM shown in FIGS. 7A-7E. For SEM and compositional analysis on solid form, samples were studied in Zeiss EVO 15 after coating samples with gold to avoid charging. The powder was mounted on an aluminum stub. Based on the EDS analysis, it appeared that chitosan and urea was present in this powder. For the TEM analysis, a small amount of the sample was taken in a small vial, diluted with DM water and sonicated for 15 mins. One to two drops of this solution was taken on a formvar grid, the excess liquid was blotted on a filter paper, and TEM analysis was carried out Tecnai F20 at representative magnifications shown in FIGS. A thin grey film in the background with very small sized darker particles were apparent. An occasional larger sized film was also seen. Because urea dissolves in water, the morphology seen in the images of this sample was primarily urea-chitosan nanocomposite (nanoparticles). The process of drying in an oven over two days ensured steady removal of water without disturbing the nano-morphology of the urea-chitosan nanocomposite. Table 6 presents the trial details for the soil and foliar application of nano chitosan fertilizer product on maize crops. [table] Control samples were T1 (urea granules, at different time); T2 (urea and zinc, commercially available); and T13 (urea powder). As shown, Table 7A also presents the varying concentrations for the samples. […] Each rectangle represented a section or table in the greenhouse and the respective Trial sample(s) shown thereon. […] FIG. 13 is a graphical representation of the number of leaves apparent at 30 days after sowing (DAS) and at 60 DAS for samples T1 through T23. […] The amount of chlorophyll present in the leaf for samples T1 through T23 was measured using a soil plant analysis development (SPAD) chlorophyll meter and is shown in FIG. 14. […]

With `NC(N)=O` [T13, urea] the “SPAD READING 30 DAS” value (leaf chlorophyll, SPAD chlorophyll meter, 30 DAS) was 34.50, the “SPAD READING 60 DAS” value (leaf chlorophyll, SPAD chlorophyll meter, 60 DAS) was 33.33 and the “Cob Yield” value (maize) was 7.33 g. For the same compound, the “Grain Yield” value (maize) was 0.00 g, the “Plant Height 30 DAS” value (maize, 30 DAS) was 124.33 centimeters and the “Plant height 60 DAS” value (maize, 60 DAS) was 159.00 centimeters. For the same compound, the “No. of leaves 30 DAS” value (maize, 30 days after sowing, soil or foliar application as per treatment) was 8.67, the “No. of leaves 60 DAS” value (maize, 60 days after sowing, soil or foliar application as per treatment) was 12.67 and the “corn cob development (grains within the cob)” value (observation by greenhouse section A, B, C) was “failed to show grains”.
